Laboratory results from patent US5294611A, “Angiotensin II receptor blocking 2,3,6 substituted quinazolinones” (American Cyanamid Company, priority 1993, dated 1994).
Like-named read-outs stand apart in the source and are kept apart here.

Tested on: Angiotensin II (AII) vasopressor response
Test: AII Challenge: antagonism of angiotensin II vasopressor response in conscious spontaneously hypertensive rats
Format: in vivo, rat (male okamoto-Aoki SHR)
Conditions: for inhibition in vivo at 3 mg/kg / inhibition in vivo at 5 mg/kg: Rattus norvegicus, read-out: Inhibition; for inhibition in vivo at 3 mg/kg: iv; for Change: single SHR; for inhibition in vivo at 5 mg/kg: po
Description: Conscious Male okamoto-Aoki SHR, 16-20 weeks old, weighing approximately 330 g are purchased from Charles River Labs (Wilmington, Mass.). Conscious rats are restrained in a supine position with elastic tape. The area at the base of the tail is locally anesthetized by subcutaneous infiltration with 2% procaine. […] The cannula is secured, heparinized (1,000 I.U./ml), sealed and the wound is closed. The animals are placed in plastic restraining cages in an upright position. The cannula is attached to a Statham P23Db pressure transducer, and pulsatile blood pressure is recorded to 10-15 minutes with a Gould Brush recorder. […] Angiotensin II (human sequence, Sigma Chem. Co., St. Louis, Mo.) of 0.05 and 0.1 ug/kg i.v. is injected into all rats (predosing response). Then a test compound, vehicle or a known angiotensin II antagonist is administered i.v., i.p. or orally to each set of rats. […] The vasopressor response of angiotensin II is measured for the increase in systolic blood pressure in mmHg.

[1] = 0.5 h, SHR n=2, 3 mg/kg I.V., AII 0.05 mcg/kg IV, 30 min post dose
[2] = 0.5 h, SHR n=2, 3 mg/kg I.V., AII 0.1 mcg/kg IV, 30 min post dose
[3] = 1 h, SHR n=2, 3 mg/kg I.V., AII 0.05 mcg/kg IV, 60 min post dose
[4] = 2 h, SHR n=2, 3 mg/kg I.V., AII 0.05 mcg/kg IV, 120 min post dose
[5] = 2 h, SHR n=2, 3 mg/kg I.V., AII 0.1 mcg/kg IV, 120 min post dose
[6] = 3 h, SHR n=2, 3 mg/kg I.V., AII 0.05 mcg/kg IV, 180 min post dose
[7] = 3 h, SHR n=2, 3 mg/kg I.V., AII 0.1 mcg/kg IV, 180 min post dose
[8] = […], SHR n=2, 3 mg/kg I.V., AII 0.05 mcg/kg IV, 90 min post dose
[9] = […], SHR n=2, 3 mg/kg I.V., AII 0.1 mcg/kg IV, 90 min post dose
[10] = SHR n=2, 3 mg/kg I.V., AII 0.05 mcg/kg IV, 30 min post dose
[11] = SHR n=2, 3 mg/kg I.V., AII 0.05 mcg/kg IV, 60 min post dose
[12] = SHR n=2, 3 mg/kg I.V., AII 0.05 mcg/kg IV, 90 min post dose
[13] = SHR n=2, 3 mg/kg I.V., AII 0.05 mcg/kg IV, 120 min post dose
[14] = SHR n=2, 3 mg/kg I.V., AII 0.05 mcg/kg IV, 180 min post dose
[15] = SHR n=2, 3 mg/kg I.V., AII 0.1 mcg/kg IV, 30 min post dose
[16] = SHR n=2, 3 mg/kg I.V., AII 0.1 mcg/kg IV, 60 min post dose
[17] = SHR n=2, 3 mg/kg I.V., AII 0.1 mcg/kg IV, 90 min post dose
[18] = SHR n=2, 3 mg/kg I.V., AII 0.1 mcg/kg IV, 120 min post dose
[19] = SHR n=2, 3 mg/kg I.V., AII 0.1 mcg/kg IV, 180 min post dose

CCCCc1nc2ccc([C@H]3[C@@H]4C5CCC(C5)[C@@H]4ON3C)cc2c(=O)n1Cc1ccc(-c2ccccc2-c2nnn[nH]2)cc1 (some centres unmarked) [Example 51]
inhibition in vivo at 3 mg/kg [1]: 89% | inhibition in vivo at 3 mg/kg [2]: 87% | inhibition in vivo at 3 mg/kg [3]: 63% | inhibition in vivo at 3 mg/kg (1 h): 82% | inhibition in vivo at 3 mg/kg [4]: 83% | inhibition in vivo at 3 mg/kg [5]: 75% | inhibition in vivo at 3 mg/kg [6]: 67% | inhibition in vivo at 3 mg/kg [7]: 63% | inhibition in vivo at 3 mg/kg [8]: 78% | inhibition in vivo at 3 mg/kg [9]: 80% | Average Change [10]: 5 mmHg | Average Change [11]: 16.5 mmHg | Average Change [12]: 10 mmHg | Average Change [13]: 7.5 mmHg | Average Change [14]: 15 mmHg | Average Change [15]: 8 mmHg | Average Change [16]: 11 mmHg | Average Change [17]: 12.5 mmHg | Average Change [18]: 15.5 mmHg | Average Change [19]: 22.5 mmHg | Change (3 mg/kg I.V., AII 0.05 mcg/kg IV, 180 min post dose): 15 mmHg

CCCCc1nc2ccc([C@H]3[C@@H]4C(=O)OC[C@@H]4ON3C)cc2c(=O)n1Cc1ccc(-c2ccccc2-c2nnn[nH]2)cc1 (relative stereo) [Example 53]
inhibition in vivo at 3 mg/kg [1]: 74% | inhibition in vivo at 3 mg/kg [2]: 81% | inhibition in vivo at 3 mg/kg [3]: 99% | inhibition in vivo at 3 mg/kg (1 h, SHR n=2, 3 mg/kg I.V., AII 0.1 mcg/kg IV, 60 min post dose): 95% | inhibition in vivo at 3 mg/kg [4]: 42% | inhibition in vivo at 3 mg/kg [5]: 64% | inhibition in vivo at 3 mg/kg [6]: 77% | inhibition in vivo at 3 mg/kg [7]: 64% | inhibition in vivo at 3 mg/kg (4 h, SHR n=2, 3 mg/kg I.V., AII 0.05 mcg/kg IV, 240 min post dose): 36% | inhibition in vivo at 3 mg/kg (4 h, SHR n=2, 3 mg/kg I.V., AII 0.1 mcg/kg IV, 240 min post dose): 44% | inhibition in vivo at 3 mg/kg (5 h, SHR n=2, 3 mg/kg I.V., AII 0.05 mcg/kg IV, 300 min post dose): 49% | inhibition in vivo at 3 mg/kg (5 h, SHR n=2, 3 mg/kg I.V., AII 0.1 mcg/kg IV, 300 min post dose): 39% | inhibition in vivo at 3 mg/kg [8]: 68% | inhibition in vivo at 3 mg/kg [9]: 66% | inhibition in vivo at 5 mg/kg (0.5 h, SHR n=2, 5 mg/kg P.O., AII 0.05 mcg/kg IV, 30 min post dose): 75% | inhibition in vivo at 5 mg/kg (0.5 h, SHR n=2, 5 mg/kg P.O., AII 0.1 mcg/kg IV, 30 min post dose): 59% | inhibition in vivo at 5 mg/kg (1 h, SHR n=2, 5 mg/kg P.O., AII 0.05 mcg/kg IV, 60 min post dose): 81% | inhibition in vivo at 5 mg/kg (1 h, SHR n=2, 5 mg/kg P.O., AII 0.1 mcg/kg IV, 60 min post dose): 53% | inhibition in vivo at 5 mg/kg (2 h, SHR n=2, 5 mg/kg P.O., AII 0.05 mcg/kg IV, 120 min post dose): 98% | inhibition in vivo at 5 mg/kg (2 h, SHR n=2, 5 mg/kg P.O., AII 0.1 mcg/kg IV, 120 min post dose): 74% | inhibition in vivo at 5 mg/kg (3 h, SHR n=2, 5 mg/kg P.O., AII 0.05 mcg/kg IV, 180 min post dose): 96% | inhibition in vivo at 5 mg/kg (3 h, SHR n=2, 5 mg/kg P.O., AII 0.1 mcg/kg IV, 180 min post dose): 79% | inhibition in vivo at 5 mg/kg (4 h, SHR n=2, 5 mg/kg P.O., AII 0.05 mcg/kg IV, 240 min post dose): 69% | inhibition in vivo at 5 mg/kg (4 h, SHR n=2, 5 mg/kg P.O., AII 0.1 mcg/kg IV, 240 min post dose): 71% | inhibition in vivo at 5 mg/kg (5 h, SHR n=2, 5 mg/kg P.O., AII 0.05 mcg/kg IV, 300 min post dose): 84% | inhibition in vivo at 5 mg/kg (5 h, SHR n=2, 5 mg/kg P.O., AII 0.1 mcg/kg IV, 300 min post dose): 53% | inhibition in vivo at 5 mg/kg ([…], SHR n=2, 5 mg/kg P.O., AII 0.05 mcg/kg IV, 90 min post dose): 88% | inhibition in vivo at 5 mg/kg ([…], SHR n=2, 5 mg/kg P.O., AII 0.1 mcg/kg IV, 90 min post dose): 76% | Average Change [10]: 10 mmHg | Average Change [11]: 0.5 mmHg | Average Change [12]: 12.5 mmHg | Average Change [13]: 22.5 mmHg | Average Change [14]: 9 mmHg | Average Change (SHR n=2, 3 mg/kg I.V., AII 0.05 mcg/kg IV, 240 min post dose): 25 mmHg | Average Change [15]: 9.5 mmHg | Average Change [16]: 2.5 mmHg | Average Change [17]: 16.5 mmHg | Average Change [18]: 17.5 mmHg | Average Change [19]: 17.5 mmHg | Average Change (SHR n=2, 3 mg/kg I.V., AII 0.1 mcg/kg IV, 240 min post dose): 27.5 mmHg | Average Change (SHR n=2, 3 mg/kg I.V., AII 0.1 mcg/kg IV, 300 min post dose): 30 mmHg | Average Change (SHR n=2, 5 mg/kg P.O., AII 0.05 mcg/kg IV, 30 min post dose): 10 mmHg | Average Change (SHR n=2, 5 mg/kg P.O., AII 0.05 mcg/kg IV, 60 min post dose): 7.5 mmHg | Average Change (SHR n=2, 5 mg/kg P.O., AII 0.05 mcg/kg IV, 90 min post dose): 5 mmHg | Average Change (SHR n=2, 5 mg/kg P.O., AII 0.05 mcg/kg IV, 120 min post dose): 1 mmHg | Average Change (SHR n=2, 5 mg/kg P.O., AII 0.05 mcg/kg IV, 180 min post dose): 1.5 mmHg | Average Change (SHR n=2, 5 mg/kg P.O., AII 0.05 mcg/kg IV, 240 min post dose): 12.5 mmHg | Average Change (SHR n=2, 5 mg/kg P.O., AII 0.05 mcg/kg IV, 300 min post dose): 6.5 mmHg | Average Change (SHR n=2, 5 mg/kg P.O., AII 0.1 mcg/kg IV, 30 min post dose): 17.5 mmHg | Average Change (SHR n=2, 5 mg/kg P.O., AII 0.1 mcg/kg IV, 60 min post dose): 20 mmHg | Average Change (SHR n=2, 5 mg/kg P.O., AII 0.1 mcg/kg IV, 90 min post dose): 10 mmHg | Average Change (SHR n=2, 5 mg/kg P.O., AII 0.1 mcg/kg IV, 120 min post dose): 11 mmHg | Average Change (SHR n=2, 5 mg/kg P.O., AII 0.1 mcg/kg IV, 180 min post dose): 9 mmHg | Average Change (SHR n=2, 5 mg/kg P.O., AII 0.1 mcg/kg IV, 240 min post dose): 12.5 mmHg | Average Change (SHR n=2, 5 mg/kg P.O., AII 0.1 mcg/kg IV, 300 min post dose): 20 mmHg | Change (3 mg/kg I.V., AII 0.05 mcg/kg IV, 240 min post dose): 25 mmHg | Change (3 mg/kg I.V., AII 0.05 mcg/kg IV, 300 min post dose): 20 mmHg | Change (3 mg/kg I.V., AII 0.1 mcg/kg IV, 300 min post dose): 30 mmHg | Change (5 mg/kg P.O., AII 0.1 mcg/kg IV, 300 min post dose): 20 mmHg
